Measured values taken from US20240327429A1, “[1,3]Thiazolo[4,5-d]-pyrimidon-7-ones as inhibitors of NOX4” (Boehringer Ingelheim International GmbH, priority 2023, published 2024).

Key:
human NOX3 (hNOX3) = biological target: T1, human NOX3 (hNOX3) (Homo sapiens, UniProt Q9HBY0); assay: NOX3 inhibition assay (L-012), HEK293 cells stably overexpressing human NOX3; format: cell-based; settings: HEK293-hNOX3, PMA stimulated
T1 construct: pLV-CMV-hNOX3-puro (NM_015718.3); host or cells: HEK293 (CLS GmbH), lentiviral transduction
T1 sequence (Q9HBY0 1-568): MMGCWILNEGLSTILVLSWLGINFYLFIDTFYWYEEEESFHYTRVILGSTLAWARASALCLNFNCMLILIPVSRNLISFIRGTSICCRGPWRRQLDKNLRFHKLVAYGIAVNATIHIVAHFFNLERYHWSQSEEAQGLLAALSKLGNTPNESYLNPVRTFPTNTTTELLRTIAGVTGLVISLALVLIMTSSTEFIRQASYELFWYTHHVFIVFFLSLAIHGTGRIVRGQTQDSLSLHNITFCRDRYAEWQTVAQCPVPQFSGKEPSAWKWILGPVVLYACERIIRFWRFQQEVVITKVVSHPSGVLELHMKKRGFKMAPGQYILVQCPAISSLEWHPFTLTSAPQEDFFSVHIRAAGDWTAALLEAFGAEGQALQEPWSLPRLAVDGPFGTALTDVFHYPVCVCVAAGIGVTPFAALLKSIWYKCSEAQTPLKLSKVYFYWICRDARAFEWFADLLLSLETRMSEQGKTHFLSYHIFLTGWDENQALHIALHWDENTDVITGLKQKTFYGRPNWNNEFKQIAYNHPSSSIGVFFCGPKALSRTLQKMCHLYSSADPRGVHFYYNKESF
T1 sequence (P13498 2-195 partner limits assumed): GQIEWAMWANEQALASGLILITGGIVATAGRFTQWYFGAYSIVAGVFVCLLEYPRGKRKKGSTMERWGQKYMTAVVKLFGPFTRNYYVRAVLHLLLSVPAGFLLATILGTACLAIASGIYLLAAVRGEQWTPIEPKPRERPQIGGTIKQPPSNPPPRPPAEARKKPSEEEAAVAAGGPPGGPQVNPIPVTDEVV
Excerpt: Plasmids are Purchased from Vectorbuilder. • for HEK-hNOX1 all necessary subunits are cloned accordingly: • pLV-CMV-hNOX1-puro (NM_007052.5) • pLV-CMV-hNOXO1-blas (NM_172168.3) • pLV-CMV-hp22phox-hygro (NM_000101.4) • pLV-CMV-hNOXA1-neo (NM_006647.2) • for HEK-hNOX3 • pLV-CMV-hNOX3-puro (NM_015718.3)
3rd generation lentiviral particles are produced in HEK293 suspension cells by transient transfection of three helper and expression plasmids. Crucial lentivirus supernatants are harvested, clarified by filtration and concentrated by precipitation. Lentivirus titers are determined in transducing units in (TU/mL) by transduction of HT1080 cells and colony forming assay. Parental HEK293 cells, purchased from CLS GmbH, are transduced with replication-incompetent 3rd generation lentiviral particles (MOI 2) and expanded for at least 2 weeks before cryopreservation of tested lots. During cultivation, medium is changed three times per week and cells are sub-cultured at least once per week. Selection antibiotics are added according to the plasmids (1 μg/ml puromycin, 1.5 μg/ml blasticidin, 200 μg/ml G418 and 100 μg/ml hygromycin).
Evaluation of the NOX4 inhibitors on NOX3 activity is assessed in HEK293 cells stably overexpressing human NOX3 (hNOX3).
Cells are seeded in 384 well plates for 2 days. […] Cells are then stimulated with PMA at 0.1 μM to induce NOX3-dependent ROS production. […] Luminescence is measured with an PHERAstar multimode reader.

human NOX5 (hNOX5) = biological target: T2, human NOX5 (hNOX5) (Homo sapiens, UniProt Q96PH1); assay: NOX5 inhibition assay (L-012), HEK293 cells stably overexpressing human NOX5; format: cell-based; settings: HEK293-hNOX5, PMA stimulated
T2 construct: expressed in transfected cells; host or cells: HEK293
T2 sequence (Q96PH1 1-765): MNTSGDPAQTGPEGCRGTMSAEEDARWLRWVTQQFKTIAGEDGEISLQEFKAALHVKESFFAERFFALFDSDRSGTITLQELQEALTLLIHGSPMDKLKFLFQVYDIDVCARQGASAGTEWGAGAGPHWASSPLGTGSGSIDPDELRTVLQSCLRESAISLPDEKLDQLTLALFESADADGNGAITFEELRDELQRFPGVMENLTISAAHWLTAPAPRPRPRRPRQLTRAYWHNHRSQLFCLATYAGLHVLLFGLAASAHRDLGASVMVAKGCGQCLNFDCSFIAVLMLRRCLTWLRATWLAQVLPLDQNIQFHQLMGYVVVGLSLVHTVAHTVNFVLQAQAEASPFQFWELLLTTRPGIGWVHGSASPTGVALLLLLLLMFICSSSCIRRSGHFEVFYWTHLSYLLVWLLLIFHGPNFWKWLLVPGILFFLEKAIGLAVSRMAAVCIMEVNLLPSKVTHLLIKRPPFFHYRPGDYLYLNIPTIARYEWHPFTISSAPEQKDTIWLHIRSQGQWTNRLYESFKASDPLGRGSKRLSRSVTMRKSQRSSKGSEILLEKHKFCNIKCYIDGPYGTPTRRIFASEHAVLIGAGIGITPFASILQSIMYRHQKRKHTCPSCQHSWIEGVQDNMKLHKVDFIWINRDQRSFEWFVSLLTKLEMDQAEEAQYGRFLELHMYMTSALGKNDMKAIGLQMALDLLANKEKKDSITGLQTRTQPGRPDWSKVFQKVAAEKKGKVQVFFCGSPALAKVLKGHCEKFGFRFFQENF
Protocol: The synthetic gene hNOX5 (Accession: Q96PH1) is cloned into pcDNA3.1_Zeo. […] The final construct is verified by sequencing.
Evaluation of the NOX4 inhibitors on NOX5 activity is assessed in HEK293 cells stably overexpressing human NOX5 (hNOX5).
Cells are seeded in 384 well plates over-night. […] Cells are then stimulated with PMA at 0.1 μM to induce NOX5-dependent ROS production. […] Luminescence is measured with an PHERAstar multimode reader.

`Cc1c(F)cccc1CSc1nc2ncsc2c(=O)n1-c1cnc(O)c(F)c1` [Example 40] showed an IC50 (human NOX3 (hNOX3)) of 39.2 µM and an IC50 (human NOX5 (hNOX5)) of 56.3 µM.
Compound `O=c1c2scnc2nc(SCc2c(F)cc(F)cc2Cl)n1-c1cnc(O)c(F)c1` [Example 41] has an IC50 (human NOX3 (hNOX3)) of 32.3 µM and an IC50 (human NOX5 (hNOX5)) of 35.8 µM.
`O=c1c2scnc2nc(SCc2ccc(C(F)(F)F)cc2F)n1-c1cnc(O)c(F)c1` [Example 42] gave an IC50 (human NOX3 (hNOX3)) of 46.4 µM and an IC50 (human NOX5 (hNOX5)) of 46.8 µM.
With `Cc1cc(F)cc(C)c1CSc1nc2ncsc2c(=O)n1-c1cnc(O)c(F)c1` [Example 43] the IC50 (human NOX3 (hNOX3)) was greater than 100 µM and the IC50 (human NOX5 (hNOX5)) was greater than 100 µM.
Work on `O=c1c2scnc2nc(SCc2ccc(F)cc2Br)n1-c1cnc(O)c(F)c1` [Example 44] yielded an IC50 (human NOX3 (hNOX3)) of 73.1 µM and an IC50 (human NOX5 (hNOX5)) of 68.1 µM.
`O=c1c2scnc2nc(SCc2c(F)ccc(F)c2F)n1-c1cnc(O)c(F)c1` [Example 45] gave an IC50 (human NOX3 (hNOX3)) of 71.5 µM and an IC50 (human NOX5 (hNOX5)) of 79 µM.
With `O=c1c2scnc2nc(SCc2ccc(C(F)(F)F)cc2Cl)n1-c1cnc(O)c(F)c1` [Example 46] the IC50 (human NOX3 (hNOX3)) was 56.4 µM and the IC50 (human NOX5 (hNOX5)) was 44.7 µM.
`N#Cc1cc(-n2c(SCc3c(F)cc(F)cc3F)nc3ncsc3c2=O)cnc1O` [Example 47, 2-Hydroxy-5-(7-oxo-5-((2,4,6-trifluorobenzyl)thio)thiazolo[4,5-d]pyrimidin-6(7H)-yl)-nicotinonitrile] gave an IC50 (human NOX3 (hNOX3)) of 18.8 µM and an IC50 (human NOX5 (hNOX5)) greater than 100 µM.
Work on `O=c1c2scnc2nc(SCc2c(F)cc(F)cc2F)n1-c1cnc(O)c(Cl)c1` [Example 48, 6-(5-Chloro-6-hydroxypyridin-3-yl)-5-((2,4,6-trifluorobenzyl)thio)thiazolo[4,5-d]pyri-midin-7(6H)-one] yielded an IC50 (human NOX3 (hNOX3)) greater than 100 µM and an IC50 (human NOX5 (hNOX5)) greater than 100 µM.
Compound `O=c1c2scnc2nc(SCc2c(F)cc(F)cc2F)n1-c1cnc(O)cc1F` [Example 49, 6-(4-Fluoro-6-hydroxypyridin-3-yl)-5-((2,4,6-trifluorobenzyl)thio)thiazolo[4,5-d]pyrimidin-7(6H)-one] has an IC50 (human NOX3 (hNOX3)) greater than 100 µM and an IC50 (human NOX5 (hNOX5)) greater than 100 µM.
Work on `O=c1c2scnc2nc(SCc2c(F)cc(F)cc2F)n1-c1ccc(O)nc1F` [Example 50, 6-(2-Fluoro-6-hydroxypyridin-3-yl)-5-((2,4,6-trifluorobenzyl)thio)thiazolo[4,5-d]-pyrimidin-7(6H)-one] yielded an IC50 (human NOX3 (hNOX3)) of 64.7 µM and an IC50 (human NOX5 (hNOX5)) of 60.2 µM.
`O=c1c2scnc2nc(SCc2c(F)cc(F)cc2F)n1-c1cc(F)c(O)nc1F` [Example 51, 6-(2,5-Difluoro-6-hydroxypyridin-3-yl)-5-((2,4,6-trifluorobenzyl)thio)thiazolo[4,5-d]-pyrimidin-7(6H)-one] was tested, and the IC50 (human NOX3 (hNOX3)) was 6.4 µM and the IC50 (human NOX5 (hNOX5)) was 59.4 µM.
`O=c1c2scnc2nc(SCc2c(F)cc(F)cc2F)n1-c1cnc(O)c(F)c1F` [Example 52, 6-(4,5-Difluoro-6-hydroxypyridin-3-yl)-5-((2,4,6-trifluorobenzyl)thio)thiazolo[4,5-d]-pyrimidin-7(6H)-one] showed an IC50 (human NOX3 (hNOX3)) of 15.5 µM and an IC50 (human NOX5 (hNOX5)) of 38.9 µM.
`O=c1c2scnc2nc(SCc2ccc(Cl)cc2F)n1-c1cnc(O)nc1` [Example 53, 5-((4-Chloro-2-fluorobenzyl)thio)-6-(2-hydroxypyrimidin-5-yl)thiazolo[4,5-d]pyrimidin-7(6H)-one] was tested, and the IC50 (human NOX3 (hNOX3)) was greater than 100 µM and the IC50 (human NOX5 (hNOX5)) was greater than 100 µM.
In the case of `Cc1cc(Cl)ccc1CSc1nc2ncsc2c(=O)n1-c1cnc(O)nc1` [Example 54], the IC50 (human NOX3 (hNOX3)) is reported as 49.4 µM and the IC50 (human NOX5 (hNOX5)) is reported as 47.6 µM.
Compound `Cc1cc(F)cc(C)c1CSc1nc2ncsc2c(=O)n1-c1cnc(O)nc1` [Example 55] has an IC50 (human NOX3 (hNOX3)) greater than 100 µM and an IC50 (human NOX5 (hNOX5)) of 85.8 µM.
`O=c1c2scnc2nc(SCc2ccc(Cl)cc2)n1-c1cnc(O)nc1` [Example 56] gave an IC50 (human NOX3 (hNOX3)) greater than 100 µM and an IC50 (human NOX5 (hNOX5)) greater than 100 µM.
With `O=c1c2scnc2nc(SCc2ccc(C(F)(F)F)cc2F)n1-c1cnc(O)nc1` [Example 57] the IC50 (human NOX3 (hNOX3)) was greater than 100 µM and the IC50 (human NOX5 (hNOX5)) was greater than 100 µM.
`Cc1cc(F)ccc1CSc1nc2ncsc2c(=O)n1-c1cnc(O)nc1` [Example 58] gave an IC50 (human NOX3 (hNOX3)) greater than 100 µM and an IC50 (human NOX5 (hNOX5)) greater than 100 µM.
`O=c1c2scnc2nc(SCc2c(F)cc(F)cc2F)n1-c1cnc(O)nc1` [Example 59] was tested, and the IC50 (human NOX3 (hNOX3)) was greater than 100 µM and the IC50 (human NOX5 (hNOX5)) was greater than 100 µM.
For `O=c1c2scnc2nc(SCc2ccc(C(F)(F)F)cc2)n1-c1cnc(O)nc1` [Example 60], the IC50 (human NOX3 (hNOX3)) was greater than 100 µM and the IC50 (human NOX5 (hNOX5)) was greater than 100 µM.
With `O=c1c2scnc2nc(SCc2ccc(Cl)cc2F)n1-c1ccc(O)nn1` [Example 61, 5-((4-Chloro-2-fluorobenzyl)thio)-6-(6-hydroxypyridazin-3-yl)thiazolo[4,5-d]pyrimidin-7(6H)-one] the IC50 (human NOX3 (hNOX3)) was 28.2 µM and the IC50 (human NOX5 (hNOX5)) was greater than 100 µM.
`Cc1cc(Cl)ccc1CSc1nc2ncsc2c(=O)n1-c1ccc(O)nn1` [Example 62] was tested, and the IC50 (human NOX3 (hNOX3)) was greater than 100 µM and the IC50 (human NOX5 (hNOX5)) was greater than 100 µM.
With `Cc1cc(F)cc(C)c1CSc1nc2ncsc2c(=O)n1-c1ccc(O)nn1` [Example 63] the IC50 (human NOX3 (hNOX3)) was greater than 100 µM and the IC50 (human NOX5 (hNOX5)) was greater than 100 µM.
Compound `O=c1c2scnc2nc(SCc2ccc(Cl)cc2)n1-c1ccc(O)nn1` [Example 64] has an IC50 (human NOX3 (hNOX3)) greater than 100 µM and an IC50 (human NOX5 (hNOX5)) greater than 100 µM.
With `O=c1c2scnc2nc(SCc2ccc(C(F)(F)F)cc2F)n1-c1ccc(O)nn1` [Example 65] the IC50 (human NOX3 (hNOX3)) was 83.4 µM and the IC50 (human NOX5 (hNOX5)) was greater than 100 µM.
Work on `O=c1c2scnc2nc(SCc2ccc(C(F)(F)F)cc2)n1-c1ccc(O)nn1` [Example 66] yielded an IC50 (human NOX3 (hNOX3)) greater than 100 µM and an IC50 (human NOX5 (hNOX5)) of 74.8 µM.
Work on `O=c1c2scnc2nc(SCc2c(F)cc(F)cc2F)n1-c1ccc(O)nn1` [Example 67] yielded an IC50 (human NOX3 (hNOX3)) greater than 100 µM and an IC50 (human NOX5 (hNOX5)) greater than 100 µM.
In the case of `Cc1cc(F)ccc1CSc1nc2ncsc2c(=O)n1-c1ccc(O)nn1` [Example 68], the IC50 (human NOX3 (hNOX3)) is reported as greater than 100 µM and the IC50 (human NOX5 (hNOX5)) is reported as greater than 100 µM.
`O=c1c2scnc2nc(SCc2c(F)cc(F)cc2F)n1-c1cnc(O)cn1` [Example 69, 6-(5-Hydroxypyrazin-2-yl)-5-((2,4,6-trifluorobenzyl)thio)thiazolo[4,5-d]pyrimidin-7(6H)-one] showed an IC50 (human NOX3 (hNOX3)) of 77.5 µM and an IC50 (human NOX5 (hNOX5)) greater than 100 µM.
